Where two headings read alike, the source gives them in different places. Where a SMILES comes first, the peptide text is derived from it. Bridges are numbered along the chain shown (N, C = ends). Where no end group is shown, it is not given here.
Legend:
HIV-1-LAI strain = test system: HIV-1-LAI strain
Method: The anti-HIV activities of the peptides were assayed according to the methods described in Roisin et al. (2004). Phytohemagglutinin-P(PHA-P)-activated peripheral blood mononuclear cells (PBMC) treated by increasing concentrations of peptide (from 100 to 0.1 nM), one hour later, were infected with hundred 50% tissue culture infectious doses (TCID50) per 100,000 cells of the HIV-1-LAI strain (Barre-Sinoussi et al., 1983). This virus was amplified in vitro on PHA-P-activated PBMC. Viral stock was titrated using PHA-P-activated PBMC, and 50% TCID50 were calculated using Kärber's formula (Kärber, 1931). Samples were maintained throughout the culture, and cell supernatants were collected at day 7 post-infection and stored at −20° C. Viral replication was measured by quantifying reverse transcriptase (RT) activity in cell culture supernatants. In parallel, cytotoxicity of the compounds was evaluated in uninfected PHA-P-activated PBMC by colorimetric 3-(4-5 dimethylthiazol-2-yl)2,5diphenyl tetrazolium bromite (MTT) assay on day 7 (as described in Mossmann, 1983). Experiments were performed in triplicate and repeated with another blood donor. Data analyses were performed using SofiMax® Pro 4.6 microcomputer software: percent of inhibition of RT activity or of cell viability were plotted vs concentration and fitted with quadratic curves; 50% effective doses (ED50) and cytotoxic doses (CD50) were calculated.
In order to avoid any limitation due to the poor ability of peptides to cross cellular membranes, they were associated to the peptide-based nanoparticle delivery system Pep-1 (SEQ ID NO: 29), at a 1/10 molar ratio.

HIV-1 integrase [1] = biological target: T1, HIV-1 integrase (Human immunodeficiency virus type 1 group M subtype B, UniProt P04585); assay: biochemical
T1 construct: Integrase is a 32 kDA viral protein that is biologically active under a multimeric form
Method: (§1) The simultaneous measurement of integrase-DNA interaction and subsequent 3′-processing activity by steady-state fluorescence anisotropy was performed as described in Guiot et al. (2006). […] After the initial DNA-binding step (performed at 25° C.), the 3′-processing activity was measured at 37° C. by fixed-time experiments: The reaction was stopped at varying times by adding SDS (0.25% final) which disrupts all IN-DNA complexes in the sample. The IN-mediated cleavage of the terminal GT dinucleotide (labeled by fluorescein on the 3′-end) leads to a significant decrease of r as compared to the r value corresponding to the fluorescein-labeled unprocessed DNA substrate. The fraction of released dinucleotide is calculated by using Eq. (1): […]

IN/DNA complexes [2] = biological target: T2, IN/DNA complexes (Human immunodeficiency virus type 1 group M subtype B, UniProt P04585); assay: Dissociation of pre-formed IN-DNA substrate complexes; format: biochemical, HIV-1
Method: For dissociation experiments, IN-DNA substrate complexes were pre-formed at 25° C. before addition of peptides. The peptide-mediated dissociation of complexes was then studied at the same temperature by measuring the decrease in the r value as a function of time.

HIV-1 RT = biological target: T3, HIV-1 RT (Human immunodeficiency virus type 1 group M subtype B, UniProt P03366); assay: biochemical
T3 construct: The heterodimeric p66/p51 RT was eluted with an imidazole gradient; p66 and p51 derived from p66 by proteolytic cleavage of the C-terminal RNAse H domain; made in house; host or cells: E. coli (M15 for the His-tagged subunits)
Method: RNA-dependent-DNA RT-polymerase activity was measured in a standard reaction assay using poly(rA)-(dT)15 as template/primer as described in Restle et al. (1990). Ten microliters of reverse transcriptase (RT) at 20 nM was incubated at 37° C. for 30 min with 20 μL of reaction buffer (50 mM Tris, pH 8.0, 80 mM KCl, 6 mM MgCl2, 5 mM DTT, 0.15 μM poly(rA-dT), 15 μM dTTP, 0.3 μCi 3H-dTTP). For peptide evaluation, HIV-1 RT was incubated with increasing concentrations of peptide inhibitors for […], and polymerase reaction was initiated by adding reaction buffer. Reactions were stopped by precipitation of nucleic acids with 5 ml of 20% trichloroacetic acid (TCA) solution for 2 h on ice, then filtered using a multiwell-sample collector (Millipore), and washed with 5% TCA solution. Filters were dried at 55° C. for 30 min and radionucleotide incorporation was determined by liquid scintillation spectrometry.
A series of peptides have been derived from Pep-A sequence (SEQ ID NO: 28), which is derived from HIV-1 reverse transcriptase. First, P1 peptide (SEQ ID NO: 1) was obtained by removing the N-terminal arginine of Pep-A. Then, additional peptides were generated by performing an alanine scan on P1. P1-derived peptides were evaluated using a standard polymerase RT assay. Reported data correspond to the mean of three separate experiments.

HIV-1 integrase [3] = biological target: T1, HIV-1 integrase; assay: biochemical; format: binding
Method: Fluorescein-labeled peptides (40 nM) were mixed with varying concentrations of integrase in 20 mM Tris pH 7.2, 50 mM NaCl, 10 mM MgCl2, and the r values were recorded.
Effect of the different peptides on the integrase (IN) activity, DNA binding and IN/DNA dissociation were evaluated as described in Example III.1 above, using fluorescence polarization and anisotropy measurements. Binding constant of the peptide for IN was determined by steady state fluorescence and anisotropy.

IN/LEDGF complex = IN/LEDGF complex (Human immunodeficiency virus type 1 group M subtype B, UniProt P04585); assay: Dissociation of IN/LEDGF complex (AlphaScreen, immunoprecipitation); format: biochemical
Method: Dissociation of IN/LEDGF complex was measured by fluorescence resonance energy transfer (AlphaScreen® technology) and immunoprecipitation experiments: • Amplified Luminescent Proximity Homogeneous Assay (ALPHA): when the proteins (IN and LEDGF), linked to acceptor and donor beads, interact together (i.e., are into close proximity), a photosignal (a high amplified signal with output in the 520-560 nm range) is detected; when the proteins are not in close proximity, the reactive oxygen decays and there is no detectable signal generated; • immunoprecipitation (IP) was performed using polyclonal anti LEDGF antibodies (purchased from Santa Cruz Biotechnology, USA) and polyclonal HA antibodies (purchased from Eurogentec, Belgium). Cell line expression HA-tagged integrase was using for the experiment in the presence of increasing concentrations of peptide inhibitors.

IN/DNA complexes [4] = biological target: T2, IN/DNA complexes; assay: DNA-binding of integrase, fluorescence anisotropy; format: biochemical, HIV-1
Method: as §1

[5] = test system: efavirenz-resistance HIV strain harbouring K103N and N341V mutations on reverse transcriptase; format: in vivo, Hu-PBL-SCID transgenic mice; conditions: EFZ resistance strain; 20 mg/kg/day; peptides formulated with CADY-2c/CADY-1S1
Method: (§2) The potency of the peptides p27 (SEQ ID NO: 25) and p16 (SEQ ID NO: 19) was assessed in vivo following intravenous challenge of Hu-PBL-SCID transgenic mice (in which human (hu) peripheral blood leukocytes (PBLs) from healthy Epstein-Barr virus (EBV)-seropositive donors are injected into severe combined immunodeficiency (SCID) mice; Mosier et al., 1988). The mice (6 to 8 week-old male mice, 5 animals per group) were infected with wild type HIV 1 virus or efavirenz-resistance HIV strain harbouring K103N and N341V mutations on reverse transcriptase. Infected mice were treated with peptides formulated with the peptide vector CADY-2c (see above) in water at a ratio 1/20, and then particles were coated with 3% of CADY-1S1 (see above), as described in International Application WO 2007/069090. Particles were injected intravenously (100 μl) every 2 days for 1 week, then HIV-1 copy were quantified by quantitative PCR. Efavirenz (a non-nucleoside reverse transcriptase inhibitor; EFZ) was used a positive drug control.

wild type HIV 1 virus = assay: HIV propagation in Hu-PBL-SCID mice, wild type virus; format: in vivo, Hu-PBL-SCID transgenic mice; conditions: 20 mg/kg; peptides formulated with CADY-2c/CADY-1S1; HIV-1 DNA copies in splenocyte extracts
Method: as §2

[6] = read-out: EC50 HIV-1 lai, Table 10

Compound | EC50 (HIV-1-LAI strain; read-out: EC50, antiviral activity, peptide complexed with Pep-1) | EC50 (HIV-1 integrase [1]) | EC50 (IN/DNA complexes [2]) | Ki (HIV-1 RT) | Kd (HIV-1 integrase [3]) | EC50 (IN/LEDGF complex) | EC50 (IN/DNA complexes [4]) | reduction of efficiency (higher Ki) relative to PAW (HIV-1 RT; relative to PAW) | reduction of viral propagation [5] | HIV propagation in vivo (in words) (wild type HIV 1 virus) | EC50 (HIV-1-LAI strain; [6]) | Ki (HIV-1 integrase [1])
GTKWLTEWIPL [Peptide P24] | 0.0023 µM | 33 µM | 21 µM | 0.7 ± 0.05 µM | 0.35 µM | 13 µM | 35 µM |  |  |  |  | 
KWLTEWIPLTAEAE [Peptide P26] |  | 28 µM | 67 µM | 1.8 ± 0.7 µM | 0.32 µM | > 50 µM | 54 µM | 2.5 fold |  |  |  | 
O=C1Nc2ccc(Cl)cc2[C@@](C#CC2CC2)(C(F)(F)F)O1 [Efavirenz, reference compound] |  |  |  |  |  |  |  |  | no effect | block HIV propagation in vivo |  | 
CC(C)C[C@@H]1NC(=O)[C@H](Cc2c[nH]c3ccccc23)NC(=O)[C@H](CCCCN)NC(=O)[C@H]([C@@H](C)O)NC(=O)CNC(=O)[C@@H](N)CSSC[C@@H](C(=O)O)NC(=O)[C@H](CC(C)C)NC(=O)[C@@H]2CCCN2C(=O)[C@H](Cc2c[nH]c3ccccc23)NC(=O)[C@H](C(C)C)NC(=O)[C@H](CCC(=O)O)NC(=O)[C@H]([C@@H](C)O)NC1=O [Peptide P16C1] (H-CGTKWLTEVWPLC-OH; disulfide 1-13) |  |  |  | 32.1 µM | 0.09 µM |  |  |  |  |  | 0.0025 µM | 4.3 µM
CC[C@H](C)[C@@H]1NC(=O)[C@H](Cc2c[nH]c3ccccc23)NC(=O)[C@H](CCC(=O)O)NC(=O)[C@H]([C@@H](C)O)NC(=O)[C@H](CC(C)C)NC(=O)[C@H](Cc2c[nH]c3ccccc23)NC(=O)[C@H](CCCCN)NC(=O)[C@H]([C@@H](C)O)NC(=O)CNC(=O)[C@@H](N)CSSC[C@@H](C(=O)O)NC(=O)[C@H](CCC(=O)O)NC(=O)[C@H](C)NC(=O)[C@H]([C@@H](C)O)NC(=O)[C@H](CC(C)C)NC(=O)[C@@H]2CCCN2C1=O [Peptide P27C1] (H-CGTKWLTEWIPLTAEC-OH; disulfide 1-16) |  |  |  | 0.042 µM | > 100 µM |  |  |  |  |  | 0.00017 µM | > 100 µM
